The record followed here is PubChem BioAssay AID588658 (The Scripps Research Institute Molecular Screening Center, 2011).

Test [1] concerns the target Mitogen-activated protein kinase 14 (Homo sapiens) (UniProt Q16539). In words: altered phosphorylated p38 MAPK amounts – HT29 cells, chemiluminescent western blot, powder samples, counter-screen for KLF5 inhibitor project, late-stage follow-up (AID 588658). As to conditions: HT29 cells, phospho-p38 western blot, 24 h; at 10 µM; stronger effect = higher value.
Test [2] concerns HT29 cells, phospho-p38 western blot, 24 h. The test is described as above. As to conditions: measured here: phospho-p38 fold change vs DMSO; at 10 µM.

Sequence of Mitogen-activated protein kinase 14 (Homo sapiens) (Q16539 whole entry, looked up): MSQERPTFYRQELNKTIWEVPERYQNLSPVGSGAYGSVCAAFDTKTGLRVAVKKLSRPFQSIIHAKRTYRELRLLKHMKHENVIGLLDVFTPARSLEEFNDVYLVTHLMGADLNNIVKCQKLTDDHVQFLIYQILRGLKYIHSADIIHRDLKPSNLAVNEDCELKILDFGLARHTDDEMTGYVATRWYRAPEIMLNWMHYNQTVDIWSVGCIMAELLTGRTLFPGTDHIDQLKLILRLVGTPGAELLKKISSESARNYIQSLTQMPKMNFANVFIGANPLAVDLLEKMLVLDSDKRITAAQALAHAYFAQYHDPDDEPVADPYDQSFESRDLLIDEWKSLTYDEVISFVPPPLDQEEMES

With `CN(C(=O)COC(=O)/C=C/c1cccc([N+](=O)[O-])c1)C1CCS(=O)(=O)C1` (stereo unspecified), the inhibition in test [1] is -85.3%. In addition, in test [2], the fold change stood at 1.85.
`CN(C(=O)CNC(=O)/C=C/c1cccc(Cl)c1)C1CCS(=O)(=O)C1` (stereo unspecified): the inhibition in test [1] was -285%. Also, the fold change in test [2] is 3.85.
On the same counts, the results for `CN(C(=O)CNC(=O)/C=C/c1cccc(Cl)c1)C1CCS(=O)(=O)CC1` are -293% and 3.93.
